{
  "source": "patent US20230263742A1",
  "about": "“A LIPID” (Stemirna Therapeutics Co., Ltd., priority 2021, published 2023)",
  "key": {"[1]": {"tested_on": "cells", "experiment": "Cytotoxicity, CCK-8 cell viability", "type": "cell-based", "details": "200 ng LNP, 24 h, CCK-8, vs cells blank", "description": "Evaluation method of cytotoxicity: 200 ng of LNP samples were mixed with cells and incubated for 24 h, then the viability was detected using CCK-8 cell viability detection kit. 10 μl of CCK-8 detection reagent was added to the transfected cells and the OD value was detected using a microplate reader at a detection wavelength of 450 nm. The cell viability percentage is obtained by comparing the OD value with that of the cells blank."}, "[2]": {"experiment": "Encapsulation efficiency (RIBOGREEN kit)", "type": "physicochemical", "details": "Luc mRNA-LNP 50:10:38.5:1.5", "description": "For nanoparticle compositions including an RNA, a QUANT-IT™ RIBOGREENR®RNA assay (Invitrogen Corporation Carlsbad, Calif.) can be used to evaluate the encapsulation of an RNA by the nanoparticle composition. The samples were diluted to a concentration of approximately 5 μg/mL in a TE buffer solution (10 mM Tris-HCl, 1 mM EDTA, pH 7.5). 50 μL of the diluted samples are transferred to a polystyrene 96 well plate and either 50 μL of TE buffer or 50 μL of a 2% Triton X-100 solution is added to the wells. The plate is incubated at a temperature of 37° C. for 15 minutes. The RIBOGREENR reagent is diluted 1:100 in TE buffer and 100 μL of this solution is added to each well. The fluorescence intensity can be measured using a fluorescence plate reader (Wallac Victor 1420 Multilablel Counter; Perkin Elmer, Waltham, Mass.) at an excitation wavelength of, for example, about 480 nm and an emission wavelength of, for example, about 520 nm. The fluorescence values of the reagent blank are subtracted from that of each of the samples and the percentage of free RNA is determined by dividing the fluorescence intensity of the intact sample (without addition of Triton X-100) by the fluorescence value of the disrupted sample (caused by the addition of Triton X-100).\nEncapsulation efficiency detection method: LNP content and encapsulation efficiency detection were carried out according to the RIBOGREEN kit."}, "[3]": {"tested_on": "A20 cells", "experiment": "In vitro cell Luc expression, A20", "type": "cell-based", "details": "100 ng Luc mRNA-LNP, 24 h", "description": "In vitro cell expression evaluation method: C2C12 cells, HepG2 cells, A20 cells were cultured, and 100,000 cells per well were plated on a 96-well plate. 100 ng of LNP samples were mixed with the cells and incubated for 24 hours (n=3), and then the expression was detected using luciferase quantitative kit 24 h after administration."}, "[4]": {"experiment": "Particle size, PDI and zeta potential by dynamic light scattering", "type": "physicochemical", "details": "for PDI / Zeta potential: Luc mRNA-LNP 50:10:38.5:1.5; for Size: Luc mRNA-LNP, lipid:phospholipid:cholesterol:PEG-DMG 50:10:38.5:1.5", "description": "A Zetasizer Nano ZS (Malvern Instruments Ltd, Malvern, Worcestershire, UK) can be used to determine the particle size, the polydispersity index (PDI) and the zeta (ζ) potential of the nanoparticle compositions in 1×PBS in determining particle size and 15 mM PBS in determining zeta (ζ) potential.\nThe evaluation method of particle size and zeta potential: 50 μL LNP sample was diluted with 950 μL purified water to obtain the diluted LNP sample. The sample was placed in a dynamic light scattering laser particle size analyzer (Malvern, ZS-90) for testing."}, "[5]": {"tested_on": "Balb/C mice", "experiment": "In vivo Luc expression after tail vein injection of Luc mRNA-LNP", "details": "5 μg Luc mRNA-LNP tail vein, 6 hours", "description": "In vivo expression evaluation method: 5 μg Luc (luciferase) mRNA-LNP solution of SW-II-118, SW-120, or SW-121 were injected into the tail vein of Balb/C mice. 6 hours after the administration, the mice are injected 0.15 mg/kg of […] substrate intraperitoneally. Within 15 minutes after the injection of the substrate, the fluorescence signal intensity was tested under a small animal in vivo imaging instrument."}, "[6]": {"tested_on": "Balb/C mice", "experiment": "Luc expression in injection site and liver site after intramuscular administration (Example 5)", "type": "in vivo", "details": "5 μg Luc mRNA-LNP (DSPC) intramuscularly, Balb/C mice n=3, 6 h", "description": "Further bioluminescence studies were performed to investigate the delivery efficiency of nanoparticle compositions including various lipid compounds according to the present invention. The formulations containing reference cationic lipid M62, M63, M118, and M119 (corresponding to Compound 62, 63, 118, and 119 in PCT/US2018/022717 (WO2018/170306), respectively) were evaluated for comparison. Nanoparticle compositions including DSPC as an optimized phospholipid, cholesterol as a structural lipid, PEG-DMG as a PEG lipid, an RNA, and a compound above mentioned were prepared according to or via methods similar to those described in Examples 1 and 2. The ratios of the lipids were 50:10:38.5:1.5 mol % for the lipid of the present invention: DSPC: cholesterol: PEG-DMG. 5 μg of LNP solution containing luciferase mRNA was administered intramuscularly to Balb/C mice (n=3). 6 hours after administration, mice were injected intraperitoneally with 0.15 mg/kg of D-luciferin substrate. Within 15 minutes after the injection of the substrate, the fluorescence signal intensity in injection site and liver site were tested under a small animal in vivo imaging instrument. Tables 3-4 summarize the fluorescence signal intensity of the nanoparticle compositions including present invention lipids and the reference compounds in injection site and liver site."}},
  "data": [
    {"smiles": "CCCCCCCCC(CCCCCCCC)OC(=O)CCCCCCCN(CCO)CCCCCCCC(=O)OCCc1ccc(CCCCCC)cc1", "note": "[SW-II-120]", "values": [
      {"measurement": "Viability (%)", "setting": "[1]; phospholipid DAPC", "value": 99.0, "unit": "%"},
      {"measurement": "Viability (%)", "setting": "[1]; phospholipid DMPE", "value": 87.9, "unit": "%"},
      {"measurement": "Viability (%)", "setting": "[1]; phospholipid DOPE", "value": 115.0, "unit": "%"},
      {"measurement": "Viability (%)", "setting": "[1]; phospholipid DPPC", "value": 102.9, "unit": "%"},
      {"measurement": "Viability (%)", "setting": "[1]; phospholipid DPPE", "value": 107.1, "unit": "%"},
      {"measurement": "Viability (%)", "setting": "[1]; phospholipid DSPC", "value": 102.3, "unit": "%"},
      {"measurement": "Viability (%)", "setting": "[1]; phospholipid DSPE", "value": 97.9, "unit": "%"},
      {"measurement": "Encapsulation Efficiency (EE, %)", "setting": "[2]; phospholipid DAPC", "value": 84.3, "unit": "%"},
      {"measurement": "Encapsulation Efficiency (EE, %)", "setting": "[2]; phospholipid DMPE", "value": 86.2, "unit": "%"},
      {"measurement": "Encapsulation Efficiency (EE, %)", "setting": "[2]; phospholipid DOPE", "value": 90.9, "unit": "%"},
      {"measurement": "Encapsulation Efficiency (EE, %)", "setting": "[2]; phospholipid DPPC", "value": 84.9, "unit": "%"},
      {"measurement": "Encapsulation Efficiency (EE, %)", "setting": "[2]; phospholipid DPPE", "value": 64.7, "unit": "%"},
      {"measurement": "Encapsulation Efficiency (EE, %)", "setting": "[2]; phospholipid DSPC", "value": 85.3, "unit": "%"},
      {"measurement": "A20 cell, in vitro expression", "setting": "[3]; phospholipid DAPC", "value": 1764},
      {"measurement": "A20 cell, in vitro expression", "setting": "[3]; phospholipid DMPE", "value": 37055.5},
      {"measurement": "A20 cell, in vitro expression", "setting": "[3]; phospholipid DOPE", "value": 3578},
      {"measurement": "A20 cell, in vitro expression", "setting": "[3]; phospholipid DPPC", "value": 7015},
      {"measurement": "A20 cell, in vitro expression", "setting": "[3]; phospholipid DPPE", "value": 54823},
      {"measurement": "A20 cell, in vitro expression", "setting": "[3]; phospholipid DSPC", "value": 8101.5},
      {"measurement": "A20 cell, in vitro expression", "setting": "[3]; phospholipid DSPE", "value": 1599},
      {"measurement": "PDI", "setting": "[4]; phospholipid DAPC", "value": "0.28 ± 0.02"},
      {"measurement": "Zeta potential", "setting": "[4]; phospholipid DAPC", "value": "−4.82 ± 0.28", "unit": "mV"},
      {"measurement": "Size", "setting": "[4]; phospholipid DAPC", "value": "97.1 ± 1.6", "unit": "nm"},
      {"measurement": "PDI", "setting": "[4]; phospholipid DMPE", "value": "0.20 ± 0.02"},
      {"measurement": "Zeta potential", "setting": "[4]; phospholipid DMPE", "value": "−6.08 ± 0.43", "unit": "mV"},
      {"measurement": "Size", "setting": "[4]; phospholipid DMPE", "value": "92.7 ± 1.1", "unit": "nm"},
      {"measurement": "PDI", "setting": "[4]; phospholipid DOPE", "value": "0.13 ± 0.02"},
      {"measurement": "Zeta potential", "setting": "[4]; phospholipid DOPE", "value": "2.09 ± 0.28", "unit": "mV"},
      {"measurement": "Size", "setting": "[4]; phospholipid DOPE", "value": "142.9 ± 1.9", "unit": "nm"},
      {"measurement": "PDI", "setting": "[4]; phospholipid DPPC", "value": "0.22 ± 0.01"},
      {"measurement": "Zeta potential", "setting": "[4]; phospholipid DPPC", "value": "−3.23 ± 2.95", "unit": "mV"},
      {"measurement": "Size", "setting": "[4]; phospholipid DPPC", "value": "92.97 ± 0.7", "unit": "nm"},
      {"measurement": "PDI", "setting": "[4]; phospholipid DPPE", "value": "0.15 ± 0.04"},
      {"measurement": "Zeta potential", "setting": "[4]; phospholipid DPPE", "value": "−5.04 ± 1.16", "unit": "mV"},
      {"measurement": "Size", "setting": "[4]; phospholipid DPPE", "value": "115.3 ± 3.7", "unit": "nm"},
      {"measurement": "PDI", "setting": "[4]; phospholipid DSPC", "value": "0.20 ± 0.01"},
      {"measurement": "Zeta potential", "setting": "[4]; phospholipid DSPC", "value": "0.61 ± 0.55", "unit": "mV"},
      {"measurement": "Size", "setting": "[4]; phospholipid DSPC", "value": "88.7 ± 1.1", "unit": "nm"},
      {"measurement": "PDI", "setting": "[4]; phospholipid DSPE", "value": "0.22 ± 0.02"},
      {"measurement": "Zeta potential", "setting": "[4]; phospholipid DSPE", "value": "−5.15 ± 2.37", "unit": "mV"},
      {"measurement": "Size", "setting": "[4]; phospholipid DSPE", "value": "106.5 ± 5.5", "unit": "nm"},
      {"measurement": "In vivo expression", "setting": "[5]; phospholipid DAPC", "value": 39073333.3, "unit": "p/sec/cm^2/sr"},
      {"measurement": "In vivo expression", "setting": "[5]; phospholipid DMPE", "value": 49736666.7, "unit": "p/sec/cm^2/sr"},
      {"measurement": "In vivo expression", "setting": "[5]; phospholipid DOPE", "value": 5083666.7, "unit": "p/sec/cm^2/sr"},
      {"measurement": "In vivo expression", "setting": "[5]; phospholipid DPPC", "value": 21307300.0, "unit": "p/sec/cm^2/sr"},
      {"measurement": "In vivo expression", "setting": "[5]; phospholipid DPPE", "value": 7056000.0, "unit": "p/sec/cm^2/sr"},
      {"measurement": "In vivo expression", "setting": "[5]; phospholipid DSPC", "value": 58040000.0, "unit": "p/sec/cm^2/sr"},
      {"measurement": "In vivo expression", "setting": "[5]; phospholipid DSPE", "value": 128056666.7, "unit": "p/sec/cm^2/sr"},
      {"measurement": "Luc expression in injection site, I.M. injection site, 6 h (ratio relative to SW-II-134-3 set as 1)", "setting": "[6]", "value": 1.064},
      {"measurement": "Luc expression in liver site, Liver site upon I.M., 6 h (ratio relative to SW-II-137-1 set as 1)", "setting": "[6]", "value": 1.318}
    ]}
  ]
}
